# Results reported in the supplement of paper PMC10307832.
# Experiments:
# Assay in all cases: relative viability (nuclei count vs DMSO), 5 days (fraction); higher = more cells survive
# Dinaciclib + Bortezomib = compound: CCc1cnn2c(NCc3ccc[n+]([O-])c3)cc(N3CCCC[C@H]3CCO)nc12 [Dinaciclib] + CC(C)C[C@H](NC(=O)[C@H](Cc1ccccc1)NC(=O)c1cnccn1)B(O)O [Bortezomib] (partner 0.002 µM)
# In short: (§1)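 Lung cancer cell lines were pin-tool dosed in 1536-well plates on the day after seeding, with either a lone drug or a fixed anchor-drug dose plus five library-drug doses (not always all listed) in √10 steps. Nuclei were counted on 4× images after 5 days. Relative viability is the ratio of treated-well to vehicle-well nuclei counts, with each value a median of duplicate plates.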
# Dinaciclib + Pictilisib = compound: CCc1cnn2c(NCc3ccc[n+]([O-])c3)cc(N3CCCC[C@H]3CCO)nc12 [Dinaciclib] + CS(=O)(=O)N1CCN(Cc2cc3nc(-c4cccc5[nH]ncc45)nc(N4CCOCC4)c3s2)CC1 [Pictilisib] (partner 1 µM)
# In short: as §1
# Dinaciclib + Crizotinib = compound: CCc1cnn2c(NCc3ccc[n+]([O-])c3)cc(N3CCCC[C@H]3CCO)nc12 [Dinaciclib] + C[C@@H](Oc1cc(-c2cnn(C3CCNCC3)c2)cnc1N)c1c(Cl)ccc(F)c1Cl [Crizotinib] (partner 1 µM)
# In short: as §1
# Dinaciclib + Alpelisib = compound: CCc1cnn2c(NCc3ccc[n+]([O-])c3)cc(N3CCCC[C@H]3CCO)nc12 [Dinaciclib] + Cc1nc(NC(=O)N2CCC[C@H]2C(N)=O)sc1-c1ccnc(C(C)(C)C(F)(F)F)c1 [Alpelisib] (partner 2 µM)
# In short: as §1
# Dinaciclib + Linsitinib = compound: CCc1cnn2c(NCc3ccc[n+]([O-])c3)cc(N3CCCC[C@H]3CCO)nc12 [Dinaciclib] + C[C@]1(O)C[C@@H](c2nc(-c3ccc4ccc(-c5ccccc5)nc4c3)c3c(N)nccn32)C1 [Linsitinib] (partner 1 µM)
# In short: as §1
Cell Line,relative viability (Dinaciclib + Bortezomib; first compound 0.009487 µM),relative viability (Dinaciclib + Bortezomib; first compound 0.03 µM),relative viability (Dinaciclib + Bortezomib; first compound 0.09487 µM),relative viability (Dinaciclib + Bortezomib; first compound 0.3 µM),relative viability (Dinaciclib + Pictilisib; first compound 0.009487 µM),relative viability (Dinaciclib + Pictilisib; first compound 0.03 µM),relative viability (Dinaciclib + Pictilisib; first compound 0.09487 µM),relative viability (Dinaciclib + Pictilisib; first compound 0.3 µM),relative viability (Dinaciclib + Crizotinib; first compound 0.009487 µM),relative viability (Dinaciclib + Crizotinib; first compound 0.03 µM),relative viability (Dinaciclib + Crizotinib; first compound 0.09487 µM),relative viability (Dinaciclib + Crizotinib; first compound 0.3 µM),relative viability (Dinaciclib + Alpelisib; first compound 0.009487 µM),relative viability (Dinaciclib + Alpelisib; first compound 0.03 µM),relative viability (Dinaciclib + Alpelisib; first compound 0.09487 µM),relative viability (Dinaciclib + Alpelisib; first compound 0.3 µM),relative viability (Dinaciclib + Linsitinib; first compound 0.009487 µM),relative viability (Dinaciclib + Linsitinib; first compound 0.03 µM),relative viability (Dinaciclib + Linsitinib; first compound 0.09487 µM),relative viability (Dinaciclib + Linsitinib; first compound 0.3 µM)
LXF-289,1.04,0.193,0.0851,0.0696,0.843,0.0778,0.0596,0.0483,0.754,0.274,0.0748,0.0784,1.01,0.264,0.0715,0.0695,0.994,0.315,0.0869,0.071
NCI-H23,0.637,0.185,0.0983,0.106,0.41,0.148,0.126,0.145,0.47,0.171,0.107,0.0907,0.578,0.15,0.119,0.104,0.508,0.142,0.105,0.109
NCI-H322M,1.26,1.26,0.52,0.187,0.497,0.262,0.2,0.583,1.05,0.66,0.191,0.182,0.737,0.718,0.196,0.211,0.925,0.477,0.224,0.229
NCI-H441,0.45,0.158,0.2,0.143,0.589,0.126,0.111,0.115,0.595,0.134,0.0914,0.101,0.594,0.128,0.147,0.15,0.811,0.129,0.115,0.113
NCI-H460,0.591,0.013,0.0102,0.0119,0.264,0.0398,0.0429,0.0452,0.688,0.0158,0.0092,0.011,0.383,0.0074,0.0122,0.0084,0.434,0.0071,0.0074,0.0155
NCI-H520,0.23,0.105,0.103,0.14,0.25,0.169,0.0942,0.165,0.573,0.102,0.124,0.128,0.601,0.148,0.141,0.147,0.615,0.128,0.129,0.177
NCI-H596,1.22,0.563,0.263,0.239,0.418,0.245,0.157,0.106,1.06,0.746,0.196,0.196,0.517,0.426,0.105,0.154,0.847,0.468,0.169,0.193
NCI-H647,0.208,0.0668,0.0726,0.0623,0.493,0.0803,0.0566,0.0473,0.606,0.0725,0.0657,0.0722,0.585,0.055,0.0588,0.0651,0.674,0.0709,0.0658,0.0602
NCI-H650,0.295,0.132,0.129,0.123,0.872,0.218,0.135,0.134,0.638,0.152,0.131,0.135,1.21,0.192,0.165,0.176,0.481,0.161,0.139,0.124
NCI-H661,0.774,0.155,0.167,0.186,0.346,0.181,0.175,0.177,1.02,0.474,0.145,0.166,0.346,0.147,0.176,0.152,0.452,0.184,0.144,0.2
NCI-H727,0.869,0.231,0.217,0.238,0.297,0.173,0.196,0.134,0.534,0.171,0.174,0.183,0.488,0.159,0.163,0.164,0.268,0.193,0.0908,0.158
NCI-H838,0.231,0.104,0.0725,0.127,0.28,0.117,0.111,0.101,0.791,0.182,0.0924,0.0905,0.916,0.149,0.11,0.123,0.547,0.137,0.113,0.112
NCI-H1355,1.16,1.1,0.223,0.152,0.476,0.146,0.0972,0.133,1.17,0.762,0.185,0.141,0.933,0.233,0.141,0.159,0.899,0.635,0.151,0.132
NCI-H1437,0.376,0.205,0.0732,0.0751,0.378,0.0843,0.0843,0.0936,0.918,0.41,0.0916,0.0807,0.87,0.182,0.0937,0.094,0.839,0.112,0.0939,0.0919
NCI-H1563,1.13,0.485,0.368,0.387,0.655,0.326,0.296,0.284,1.03,0.379,0.34,0.303,1.09,0.459,0.388,0.302,1.39,0.794,0.331,0.376
NCI-H1651,0.96,0.763,0.25,0.0931,0.507,0.115,0.0517,0.0439,0.941,0.685,0.188,0.0849,0.865,0.613,0.108,0.0602,0.775,0.307,0.0746,0.0549

Cell Line,relative viability (Dinaciclib + Bortezomib; first compound 0.009487 µM),relative viability (Dinaciclib + Bortezomib; first compound 0.03 µM),relative viability (Dinaciclib + Bortezomib; first compound 0.09487 µM),relative viability (Dinaciclib + Bortezomib; first compound 0.3 µM),relative viability (Dinaciclib + Pictilisib; first compound 0.009487 µM),relative viability (Dinaciclib + Pictilisib; first compound 0.03 µM),relative viability (Dinaciclib + Pictilisib; first compound 0.09487 µM),relative viability (Dinaciclib + Pictilisib; first compound 0.3 µM),relative viability (Dinaciclib + Crizotinib; first compound 0.009487 µM),relative viability (Dinaciclib + Crizotinib; first compound 0.03 µM),relative viability (Dinaciclib + Crizotinib; first compound 0.09487 µM),relative viability (Dinaciclib + Crizotinib; first compound 0.3 µM),relative viability (Dinaciclib + Alpelisib; first compound 0.009487 µM),relative viability (Dinaciclib + Alpelisib; first compound 0.03 µM),relative viability (Dinaciclib + Alpelisib; first compound 0.09487 µM),relative viability (Dinaciclib + Alpelisib; first compound 0.3 µM),relative viability (Dinaciclib + Linsitinib; first compound 0.009487 µM),relative viability (Dinaciclib + Linsitinib; first compound 0.03 µM),relative viability (Dinaciclib + Linsitinib; first compound 0.09487 µM),relative viability (Dinaciclib + Linsitinib; first compound 0.3 µM)
NCI-H1666,0.528,0.19,0.164,0.18,0.4,0.19,0.21,0.226,0.742,0.194,0.202,0.271,0.716,0.165,0.228,0.243,0.656,0.198,0.209,0.216
NCI-H1703,0.366,0.122,0.132,0.114,0.26,0.154,0.127,0.133,0.61,0.229,0.0855,0.106,0.419,0.119,0.0849,0.115,0.767,0.25,0.0664,0.0983
NCI-H1734,0.644,0.148,0.121,0.116,0.396,0.188,0.124,0.128,0.464,0.163,0.1,0.12,0.607,0.271,0.127,0.138,0.813,0.328,0.158,0.132
NCI-H1755,0.889,0.884,0.171,0.17,0.387,0.132,0.127,0.143,0.8,0.289,0.147,0.147,0.852,0.241,0.158,0.169,0.991,0.429,0.166,0.171
NCI-H1792,0.925,0.741,0.238,0.0774,0.234,0.121,0.0539,0.0574,0.994,0.747,0.184,0.0753,0.732,0.289,0.118,0.0656,0.559,0.317,0.069,0.0552
NCI-H1915,0.81,0.23,0.112,0.105,0.658,0.158,0.121,0.102,0.706,0.117,0.103,0.102,0.866,0.202,0.108,0.108,1.06,0.279,0.136,0.127
NCI-H1975,0.29,0.126,0.109,0.12,0.166,0.0983,0.102,0.102,0.765,0.222,0.139,0.129,0.473,0.118,0.112,0.147,0.632,0.265,0.13,0.141
NCI-H1993,1.18,0.551,–,0.61,0.694,0.834,–,0.588,0.735,0.766,–,0.642,0.671,0.683,–,0.642,0.69,0.586,–,0.518
NCI-H2009,0.88,0.101,0.069,0.0948,0.661,0.0836,0.0705,0.0666,1.13,0.0796,0.0746,0.0749,0.923,0.151,0.102,0.0919,1.12,0.283,0.105,0.104
NCI-H2023,1,0.066,0.0634,0.0575,0.26,0.0718,0.0607,0.0559,0.93,0.0702,0.05,0.0622,0.538,0.25,0.064,0.0614,0.442,0.0999,0.0724,0.0763
NCI-H2085,1.06,0.446,0.26,0.233,0.424,0.281,0.221,0.215,1.02,0.313,0.208,0.236,0.976,0.346,0.228,0.258,0.94,0.188,0.176,0.202
NCI-H2087,0.998,0.135,0.142,0.123,0.643,0.143,0.165,0.151,1.3,0.136,0.128,0.13,0.843,0.144,0.121,0.116,0.69,0.164,0.155,0.133
NCI-H2126,1.06,0.973,0.524,0.208,0.474,0.246,0.198,0.199,1.01,0.565,0.213,0.215,0.732,0.399,0.209,0.196,0.692,0.555,0.197,0.207
NCI-H2228,0.934,0.0992,0.119,0.102,0.484,0.0919,0.0936,0.1,0.526,0.178,0.135,0.103,0.548,0.122,0.108,0.119,0.715,0.466,0.109,0.13
NCI-H2347,1.23,0.226,0.239,0.215,0.455,0.292,0.327,0.179,0.734,0.146,0.202,0.156,0.986,0.324,0.274,0.222,1.03,0.355,0.273,0.266
